Measured values published in PubChem BioAssay AID192 (DTP/NCI, 2004).
Where “and” joins values, the source holds several entries; their conditions need not be identical. Equal values may be shown once. Toxic doses and inconclusive results are not listed.

Tested on: BDF1 mice, B16 melanoma ip, median survival T/C
Assay: NCI In Vivo Anticancer Drug Screen. Data for tumor model B16 Melanoma (intraperitoneal) in B6D2F1 (BDF1) mice
Conditions: endpoint: median survival time, higher = longer survival
Procedure, shortened: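 In this screen, activity was judged from survival or tumor size in treated versus vehicle-treated tumor-bearing mice, reported as T/C.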

[1] = dose: 12.5 mg/kg/injection, schedule: Q01DX009 (ip), vehicle: saline with Tween-80
[2] = dose: 25.0 mg/kg/injection, schedule: Q01DX009 (ip), vehicle: saline with Tween-80
[3] = dose: 50.0 mg/kg/injection, schedule: Q01DX009 (ip), vehicle: saline with Tween-80
[4] = dose: 100.0 mg/kg/injection, schedule: Q01DX009 (ip), vehicle: saline with Tween-80
[5] = dose: 200.0 mg/kg/injection, schedule: Q01DX009 (ip), vehicle: saline with Tween-80
[6] = dose: 200.0 mg/kg/injection, schedule: Q01DX009 (ip), vehicle: Klucel (hydroxypropylcellulose) (HPC)
[7] = dose: 25.0 mg/kg/injection, schedule: Q01DX009 (ip), vehicle: Klucel (hydroxypropylcellulose) (HPC)
[8] = dose: 50.0 mg/kg/injection, schedule: Q01DX009 (ip), vehicle: Klucel (hydroxypropylcellulose) (HPC)
[9] = dose: 100.0 mg/kg/injection, schedule: Q01DX009 (ip), vehicle: Klucel (hydroxypropylcellulose) (HPC)

For C/C=C(\C)c1cc(=O)c2c(C)cc3c(c2o1)C(=O)c1c(O)c(C2CC(C)(N(C)C)C(OC(C)=O)C(C)O2)cc(C2CC(N(C)C)C(O)C(C)O2)c1C3=O (stereo not drawn), the T/C (dose: 0.16 mg/kg/injection, schedule: Q01DX009 (ip), vehicle: saline) was 103 % of control, the T/C (dose: 0.31 mg/kg/injection, schedule: Q01DX009 (ip), vehicle: saline) was 103 % of control and the T/C (dose: 0.62 mg/kg/injection, schedule: Q01DX009 (ip), vehicle: saline) was 102 % of control. The T/C (dose: 1.25 mg/kg/injection, schedule: Q01DX009 (ip), vehicle: saline) was 91 % of control and 110 % of control and the T/C (dose: 2.5 mg/kg/injection, schedule: Q01DX009 (ip), vehicle: saline) was 124 % of control.

In the case of COc1cc([C@@H]2c3cc4c(c(O)c3C[C@H]3COC(=O)[C@@H]32)OCO4)cc(OC)c1O, the T/C (dose: 0.12 mg/kg/injection, schedule: Q01DX009 (ip), vehicle: saline) is reported as 97 % of control, the T/C (dose: 0.12 mg/kg/injection, schedule: Q01DX009 (ip), vehicle: suspension in saline) is reported as 100 % of control and the T/C (dose: 0.25 mg/kg/injection, schedule: Q01DX009 (ip), vehicle: saline) is reported as 97 % of control. The T/C (dose: 0.25 mg/kg/injection, schedule: Q01DX009 (ip), vehicle: suspension in saline) was 96 % of control, the T/C (dose: 0.5 mg/kg/injection, schedule: Q01DX009 (ip), vehicle: saline) was 107 % of control and the T/C (dose: 0.5 mg/kg/injection, schedule: Q01DX009 (ip), vehicle: suspension in saline) was 105 % of control. For the same compound, the T/C (dose: 1.0 mg/kg/injection, schedule: Q01DX009 (ip), vehicle: saline) was 95 % of control.

NCCNc1ccc(NCCN)c2c1C(=O)c1ccccc1C2=O was tested, and the T/C (dose: 4.0 mg/kg/injection, schedule: Q01DX009 (ip), vehicle: acid diluted with saline) was 210 % of control and the T/C (dose: 8.0 mg/kg/injection, schedule: Q01DX009 (ip), vehicle: acid diluted with saline) was 218 % of control.

CCC(C)C1NC(=O)C(NC(=O)c2c3nc4c(C(=O)NC5C(=O)NC(C(C)CC)C(=O)N6CCCC6C(=O)N(C)CC(=O)N(C)C(C(C)C)C(=O)OC5C)cc(N)c(C)c4oc-3c(C)c(=O)c2N)C(C)OC(=O)C(C(C)C)N(C)C(=O)CN(C)C(=O)C2CCCN2C1=O (stereo not drawn) was tested, and the T/C (dose: 12.5 micrograms/kg/injection, schedule: Q01DX009 (ip), vehicle: water) was 110 % of control, the T/C (dose: 25.0 micrograms/kg/injection, schedule: Q01DX009 (ip), vehicle: water) was 104 % of control and the T/C (dose: 118.0 micrograms/kg/injection, schedule: Q01DX009 (ip), vehicle: water) was 161 % of control. For the same compound, the T/C (dose: 400.0 micrograms/kg/injection, schedule: Q01DX009 (ip), vehicle: water) was 159 % of control.

For COC(=O)C(Cl)(Cl)N=Nc1c(Cl)cc(Cl)c(C)c1Cl, the T/C [1] was 112 % of control, the T/C [2] was 106 % of control and the T/C [3] was 111 % of control. For the same compound, the T/C [4] was 99 % of control and the T/C [5] was 97 % of control.

With O=[N+]([O-])c1ccccc1O the T/C [1] was 97 % of control, the T/C (dose: 12.5 mg/kg/injection, schedule: Q04DX003 (ip), vehicle: saline with Tween-80) was 94 % of control and the T/C [2] was 92 % of control. The T/C (dose: 25.0 mg/kg/injection, schedule: Q04DX003 (ip), vehicle: saline with Tween-80) was 91 % of control, the T/C [3] was 100 % of control and the T/C (dose: 50.0 mg/kg/injection, schedule: Q04DX003 (ip), vehicle: saline with Tween-80) was 100 % of control.

In the case of CC(=O)Oc1cccc(C)c1, the T/C [5] is reported as 106 % of control.

Brc1cc(Br)cc(-c2nnc(-c3cccc4ccccc34)o2)c1 was tested, and the T/C [6] was 94 % of control.

With O=C(COc1ccc(Cl)cc1)Nc1ccccc1C(F)(F)F the T/C (dose: 100.0 mg/kg/injection, schedule: Q04DX003 (ip), vehicle: Klucel (hydroxypropylcellulose) (HPC)) was 90 % of control, the T/C (dose: 200.0 mg/kg/injection, schedule: Q04DX003 (ip), vehicle: Klucel (hydroxypropylcellulose) (HPC)) was 92 % of control and the T/C (dose: 400.0 mg/kg/injection, schedule: Q04DX003 (ip), vehicle: Klucel (hydroxypropylcellulose) (HPC)) was 90 % of control.

In the case of C=C(C)C12OC3(c4ccccc4)OC1C1C4OC4(CO)C(O)C4(O)C(=O)C(C)=CC4C1(O3)C(C)C2OC(=O)/C=C/C=C/c1ccccc1 (stereo not drawn), the T/C (dose: 6.3 micrograms/kg/injection, schedule: Q01DX009 (ip), vehicle: saline with Tween-80) is reported as 107 % of control, the T/C (dose: 12.5 micrograms/kg/injection, schedule: Q01DX009 (ip), vehicle: saline with Tween-80) is reported as 96 % of control and the T/C (dose: 25.0 micrograms/kg/injection, schedule: Q01DX009 (ip), vehicle: alcohol) is reported as 90 % of control. The T/C (dose: 25.0 micrograms/kg/injection, schedule: Q01DX009 (ip), vehicle: saline with Tween-80) was 96 % of control, the T/C (dose: 50.0 micrograms/kg/injection, schedule: Q01DX009 (ip), vehicle: alcohol) was 91 % of control and the T/C (dose: 50.0 micrograms/kg/injection, schedule: Q01DX009 (ip), vehicle: saline with Tween-80) was 96 % of control. For the same compound, the T/C (dose: 100.0 micrograms/kg/injection, schedule: Q01DX009 (ip), vehicle: alcohol) was 88 % of control and the T/C (dose: 100.0 micrograms/kg/injection, schedule: Q01DX009 (ip), vehicle: saline with Tween-80) was 96 % of control.

In the case of Nc1ncnc2c1c(C(=O)O)cn2C1OC(CO)C(O)C1O (stereo not drawn), the T/C [1] is reported as 91 % of control, the T/C [2] is reported as 93 % of control and the T/C [3] is reported as 96 % of control.

With Cc1[nH]ccc2c(C)c3nc4ccc(O)cc4c3cc12 the T/C (dose: 2.5 mg/kg/injection, schedule: Q04DX003 (ip), vehicle: water) was 123 % of control, the T/C (dose: 5.0 mg/kg/injection, schedule: Q04DX003 (ip), vehicle: water) was 121 % of control and the T/C (dose: 20.0 mg/kg/injection, schedule: Q04DX003 (ip), vehicle: water) was 153 % of control. The T/C (dose: 40.0 mg/kg/injection, schedule: Q04DX003 (ip), vehicle: water) was 113 % of control.

In the case of COc1cc(NS(C)(=O)=O)ccc1Nc1c2ccccc2nc2c(C)cccc12, the T/C (dose: 2.0 mg/kg/injection, schedule: Q01DX009 (ip), vehicle: saline) is reported as 151 % of control, the T/C (dose: 2.5 mg/kg/injection, schedule: Q01DX009 (ip), vehicle: other) is reported as 180 % of control and the T/C (dose: 4.0 mg/kg/injection, schedule: Q01DX009 (ip), vehicle: saline) is reported as 213 % of control. The T/C (dose: 5.0 mg/kg/injection, schedule: Q01DX009 (ip), vehicle: other) was 190 % of control, the T/C (dose: 5.0 mg/kg/injection, schedule: Q01DX009 (ip), vehicle: saline with Tween-80) was 167 % of control and the T/C (dose: 10.0 mg/kg/injection, schedule: Q01DX001 (ip), vehicle: saline sonified) was 163 % of control. For the same compound, the T/C (dose: 12.5 mg/kg/injection, schedule: Q04DX003 (ip), vehicle: Klucel (hydroxypropylcellulose) (HPC)) was 160 % of control, the T/C (dose: 20.0 mg/kg/injection, schedule: Q01DX001 (ip), vehicle: saline sonified) was 166 % of control and the T/C (dose: 25.0 mg/kg/injection, schedule: Q04DX003 (ip), vehicle: Klucel (hydroxypropylcellulose) (HPC)) was 200 % of control. For the same compound, the T/C (dose: 60.0 mg/kg/injection, schedule: Q01DX001 (ip), vehicle: saline sonified) was 183 % of control.

CC1(C)N=C(N)N=C(N)N1c1cccc(CC(=O)Nc2ccc(S(=O)(=O)F)cc2)c1 was tested, and the T/C [7] was 103 % of control, the T/C [8] was 102 % of control and the T/C [9] was 109 % of control. The T/C (dose: 150.0 mg/kg/injection, schedule: Q01DX009 (ip), vehicle: Klucel (hydroxypropylcellulose) (HPC)) was 109 % of control.

With NNc1ncnc2nc[nH]c12 the T/C (dose: 12.5 mg/kg/injection, schedule: Q01DX009 (ip), vehicle: saline) was 108 % of control, the T/C (dose: 25.0 mg/kg/injection, schedule: Q01DX009 (ip), vehicle: saline) was 120 % of control and the T/C (dose: 50.0 mg/kg/injection, schedule: Q01DX009 (ip), vehicle: saline) was 100 % of control.

COC(CCC(C)C1OC23CC(OC(=O)CC(C(C)O)OC(=O)CC(O)(O2)C(C)CC3(C)C)C1C)c1cccc(O)c1 (stereo not drawn) was tested, and the T/C (dose: 12.5 micrograms/kg/injection, schedule: Q01DX009 (ip), vehicle: other) was 103 % of control, the T/C (dose: 25.0 micrograms/kg/injection, schedule: Q01DX009 (ip), vehicle: other) was 101 % of control and the T/C (dose: 50.0 micrograms/kg/injection, schedule: Q01DX009 (ip), vehicle: other) was 97 % of control. The T/C (dose: 100.0 micrograms/kg/injection, schedule: Q01DX009 (ip), vehicle: other) was 101 % of control.

O=C(Nc1ccccc1)Nc1nccs1 was tested, and the T/C (dose: 12.5 mg/kg/injection, schedule: Q01DX009 (ip), vehicle: Klucel (hydroxypropylcellulose) (HPC)) was 91 % of control, the T/C [7] was 93 % of control and 113 % of control and the T/C [8] was 98 % of control and 102 % of control. The T/C [9] was 93 % of control and 99 % of control and the T/C [6] was 94 % of control and 100 % of control.

In the case of Cc1cc2cc3cc(C)c(N)cc3nc2cc1N, the T/C (dose: 3.12 mg/kg/injection, schedule: Q01DX009 (ip), vehicle: saline with Tween-80) is reported as 116 % of control, the T/C (dose: 6.25 mg/kg/injection, schedule: Q01DX009 (ip), vehicle: saline with Tween-80) is reported as 121 % of control and the T/C [2] is reported as 119 % of control.

NC(N)=NC(N)=Nc1ccc(S(=O)(=O)O)cc1 was tested, and the T/C [4] was 94 % of control, the T/C [5] was 104 % of control and the T/C (dose: 400.0 mg/kg/injection, schedule: Q01DX009 (ip), vehicle: saline with Tween-80) was 98 % of control.

For CCc1cnccc1C, the T/C [7] was 100 % of control and the T/C [8] was 112 % of control.
